Test results as given in patent US10780090B2, “Heteroaryl compounds useful as inhibitors of SUMO activating enzyme” (Millennium Pharmaceuticals, Inc., priority 2014, dated 2020).

Biological target: recombinant human SAE enzyme (Homo sapiens (Human), UniProt Q9UBT2)
Assay: SAE HTRF enzyme assay
Assay type: biochemical
Settings: for inhibition at 0.111 µM: read-out: Percent Inhibition
Summary of the method: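 Human SAE (0.11 nM) with 0.5 μM ATP, 0.125 μM Sumo-Flag and 0.01 μM Ubc9-GST in HEPES pH 7.5, 5 mM MgCl2, 250 μM GSH; 105 min at 24 °C. Stopped with EDTA; HTRF read after 2 h with Eu-anti-Flag and APC-anti-GST. Percent inhibition or IC50 reported.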

[1] = SAE inhibition at compound concentration 0.111 μM
[2] = SAE inhibition, class symbols, legend in nM

Chain of recombinant human SAE enzyme (Q9UBT2 whole entry): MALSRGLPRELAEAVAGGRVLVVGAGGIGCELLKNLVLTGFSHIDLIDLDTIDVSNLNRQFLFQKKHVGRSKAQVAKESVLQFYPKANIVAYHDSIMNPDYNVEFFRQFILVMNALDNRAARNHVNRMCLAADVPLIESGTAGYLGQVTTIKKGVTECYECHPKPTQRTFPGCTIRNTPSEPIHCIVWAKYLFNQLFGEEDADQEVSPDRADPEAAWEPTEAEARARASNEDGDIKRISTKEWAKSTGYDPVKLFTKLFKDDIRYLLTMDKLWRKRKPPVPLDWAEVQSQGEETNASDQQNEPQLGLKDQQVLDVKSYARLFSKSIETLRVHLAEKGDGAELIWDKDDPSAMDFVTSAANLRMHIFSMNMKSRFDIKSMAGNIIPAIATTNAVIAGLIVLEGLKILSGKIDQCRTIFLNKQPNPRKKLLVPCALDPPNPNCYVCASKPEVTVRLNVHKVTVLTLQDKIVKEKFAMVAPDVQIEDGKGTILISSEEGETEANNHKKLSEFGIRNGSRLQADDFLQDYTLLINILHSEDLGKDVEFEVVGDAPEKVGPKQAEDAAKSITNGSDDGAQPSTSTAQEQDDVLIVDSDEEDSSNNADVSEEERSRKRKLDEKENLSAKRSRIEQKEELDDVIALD
Chain of recombinant human SAE enzyme (Q9UBE0 whole entry partner): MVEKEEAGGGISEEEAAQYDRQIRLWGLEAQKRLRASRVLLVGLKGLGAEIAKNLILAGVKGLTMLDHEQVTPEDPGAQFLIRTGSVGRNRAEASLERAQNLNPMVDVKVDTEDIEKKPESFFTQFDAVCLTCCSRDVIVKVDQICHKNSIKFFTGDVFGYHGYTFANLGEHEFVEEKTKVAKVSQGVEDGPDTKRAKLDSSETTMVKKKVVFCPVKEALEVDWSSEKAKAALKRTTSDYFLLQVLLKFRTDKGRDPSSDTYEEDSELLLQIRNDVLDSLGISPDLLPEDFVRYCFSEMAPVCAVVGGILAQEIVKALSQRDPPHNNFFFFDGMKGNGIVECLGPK

Row | Structure (SMILES) | Percent Inhibition (Concentration 0.111 μM) | IC50 (class symbols A/B/C) | inhibition at 0.111 µM (Concentration 0.111 μM) | Percent Inhibition [1] | IC50 [2]
1 | NS(=O)(=O)OC[C@H]1C[C@@H](Nc2ncncc2C(=O)c2cc([C@@H](O)c3ccccc3Cl)c(Cl)s2)C[C@@H]1O (mixture of isomers) [I-86, [(1R,2S,4R)-4-{[5-({5-chloro-4-[(S)-(2-chlorophenyl)(hydroxy)methyl]-2-thienyl}carbonyl)pyrimidin-4-yl]amino}-2-hydroxycyclopentyl]methyl sulfamate and [(1R,2S,4R)-4-{[5-({5-chloro-4-[(R)-(2-chlorophenyl)(hydroxy)methyl]-2-thienyl}carbonyl)pyrimidin-4-yl]amino}-2-hydroxycyclopentyl]methyl sulfamate] | 96 | < 10 nM | – | – | –
2 | NS(=O)(=O)OC[C@H]1C[C@@H](Nc2ncncc2C(=O)c2cc(CN3CCc4ccc(Cl)cc43)cs2)C[C@@H]1O [I-83, [(1R,2S,4R)-4-{[5-({4-[(6-chloro-2,3-dihydro-1H-indol-1-yl)methyl]-2-thienyl}carbonyl)pyrimidin-4-yl]amino}-2-hydroxycyclopentyl]methyl sulfamate] | – | < 10 nM | 98% | – | –
3 | NS(=O)(=O)OC[C@H]1C[C@@H](Nc2ncncc2C(=O)c2cc([C@@H]3OCCc4ccc(Cl)nc43)c(Cl)s2)C[C@@H]1O (single isomer, unassigned) [I-276a, [(1R,2S,4R)-4-{[5-({5-chloro-4-[(8S)-2-chloro-5,8-dihydro-6H-pyrano[3,4-b]pyridin-8-yl]-2-thienyl}carbonyl)pyrimidin-4-yl]amino}-2-hydroxycyclopentyl]methyl sulfamate or [(1R,2S,4R)-4-{[5-({5-chloro-4-[(8R)-2-chloro-5,8-dihydro-6H-pyrano[3,4-b]pyridin-8-yl]-2-thienyl}carbonyl)pyrimidin-4-yl]amino}-2-hydroxycyclopentyl]methyl sulfamate] | 28 | 100 to 1000 nM | – | – | –
4 | NS(=O)(=O)OC[C@H]1C[C@@H](Nc2ncncc2C(=O)c2cc([C@@]3(c4cccc(Cl)c4)CCCS3)cs2)C[C@@H]1O (mixture of isomers) [I-209, {(1R,2S,4R)-4-[(5-{[(2S)-2-(3-chlorophenyl)-2,3,4,5-tetrahydro-2,3′-bithiophen-5′-yl]carbonyl}pyrimidin-4-yl)amino]-2-hydroxycyclopentyl}methyl sulfamate and {(1R,2S,4R)-4-[(5-{[(2R)-2-(3-chlorophenyl)-2,3,4,5-tetrahydro-2,3′-bithiophen-5′-yl]carbonyl}pyrimidin-4-yl)amino]-2-hydroxycyclopentyl}methyl sulfamate] | 45 | 100 to 1000 nM | – | – | –
5 | NS(=O)(=O)OC[C@H]1C[C@@H](Nc2ncncc2C(=O)c2cc([C@@H]3OCC(F)(F)c4ccc(Cl)cc43)cs2)C[C@@H]1O (single isomer, unassigned) [I-289b, [(1R,2S,4R)-4-{[5-({4-[(1R)-7-chloro-4,4-difluoro-3,4-dihydro-1H-isochromen-1-yl]-2-thienyl}carbonyl)pyrimidin-4-yl]amino}-2-hydroxycyclopentyl]methyl sulfamate or [(1R,2S,4R)-4-{[5-({4-[(1S)-7-chloro-4,4-difluoro-3,4-dihydro-1H-isochromen-1-yl]-2-thienyl}carbonyl)pyrimidin-4-yl]amino}-2-hydroxycyclopentyl]methyl sulfamate] | – | – | – | 99% | < 10 nM
6 | Cc1sc(C(=O)c2cncnc2N[C@@H]2C[C@H](COS(N)(=O)=O)[C@@H](O)C2)cc1[C@H]1OCC(F)(F)c2ccc(Cl)nc21 (single isomer, unassigned) [I-260a, [(1R,2S,4R)-4-{[5-({4-[(8R)-2-chloro-5,5-difluoro-5,8-dihydro-6H-pyrano[3,4-b]pyridin-8-yl]-5-methyl-2-thienyl}carbonyl)pyrimidin-4-yl]amino}-2-hydroxycyclopentyl]methyl sulfamate or [(1R,2S,4R)-4-{[5-({4-[(8S)-2-chloro-5,5-difluoro-5,8-dihydro-6H-pyrano[3,4-b]pyridin-8-yl]-5-methyl-2-thienyl}carbonyl)pyrimidin-4-yl]amino}-2-hydroxycyclopentyl]methyl sulfamate] | 99 | < 10 nM | – | – | –
7 | NS(=O)(=O)OC[C@H]1C[C@@H](Nc2ncncc2C(=O)c2cc([C@@]3(C4=CCCCC4)CCCO3)cs2)C[C@@H]1O (mixture of isomers) [I-116, [(1R,2S,4R)-4-{[5-({4-[(2S)-2-(cyclohex-1-en-1-yl)tetrahydrofuran-2-yl]-2-thienyl}carbonyl)pyrimidin-4-yl]amino}-2-hydroxycyclopentyl]methyl sulfamate and [(1R,2S,4R)-4-{[5-({4-[(2R)-2-(cyclohex-1-en-1-yl)tetrahydrofuran-2-yl]-2-thienyl}carbonyl)pyrimidin-4-yl]amino}-2-hydroxycyclopentyl]methyl sulfamate] | 96 | < 10 nM | – | – | –
8 | NS(=O)(=O)OC[C@H]1C[C@@H](Nc2ncncc2C(=O)c2cc(CN3CCCC(F)(F)C3)cs2)C[C@@H]1O [I-224, [(1R,2S,4R)-4-{[5-({4-[(3,3-difluoropiperidin-1-yl)methyl]-2-thienyl}carbonyl)pyrimidin-4-yl]amino}-2-hydroxycyclopentyl]methyl sulfamate] | – | 100 to 1000 nM | 31% | – | –
9 | Cc1sc(C(=O)c2cncnc2N[C@@H]2C[C@H](COS(N)(=O)=O)[C@@H](O)C2)nc1C1OCCc2ccc(Cl)cc21 (single isomer, unassigned) [I-300a, [(1R,2S,4R)-4-{[5-({4-[(1R)-7-chloro-3,4-dihydro-1H-isochromen-1-yl]-5-methyl-1,3-thiazol-2-yl}carbonyl)pyrimidin-4-yl]amino}-2-hydroxycyclopentyl]methyl sulfamate or [(1R,2S,4R)-4-{[5-({4-[(1S)-7-chloro-3,4-dihydro-1H-isochromen-1-yl]-5-methyl-1,3-thiazol-2-yl}carbonyl)pyrimidin-4-yl]amino}-2-hydroxycyclopentyl]methyl sulfamate] | – | – | – | 26% | 100 to 1000 nM
10 | Cc1sc(C(=O)c2cncnc2N[C@@H]2C[C@H](COS(N)(=O)=O)[C@@H](O)C2)cc1Cc1cccc(Cl)c1 [I-51, {(1R,2S,4R)-4-[(5-{[4-(3-chlorobenzyl)-5-methyl-2-thienyl]carbonyl}pyrimidin-4-yl)amino]-2-hydroxycyclopentyl}methyl sulfamate] | – | < 10 nM | 100% | – | –
11 | CC(c1cccc(Cl)c1)c1csc(C(=O)c2cncnc2N[C@@H]2C[C@H](COS(N)(=O)=O)[C@@H](O)C2)c1 (single isomer, unassigned) [I-117b, [(1R,2S,4R)-4-{[5-({4-[(1S)-1-(3-chlorophenyl)ethyl]-2-thienyl}carbonyl)pyrimidin-4-yl]amino}-2-hydroxycyclopentyl]methyl sulfamate or [(1R,2S,4R)-4-{[5-({4-[(1R)-1-(3-chlorophenyl)ethyl]-2-thienyl}carbonyl)pyrimidin-4-yl]amino}-2-hydroxycyclopentyl]methyl sulfamate] | 97 | < 10 nM | – | – | –
12 | NS(=O)(=O)OC[C@H]1C[C@@H](Nc2ncncc2C(=O)c2cc(C3SCCc4ccc(Cl)cc43)cs2)C[C@@H]1O (single isomer, unassigned) [I-320b, [(1R,2S,4R)-4-{[5-({4-[(1R)-7-chloro-3,4-dihydro-1H-isothiochromen-1-yl]-2-thienyl}carbonyl)pyrimidin-4-yl]amino}-2-hydroxycyclopentyl]methyl sulfamate or [(1R,2S,4R)-4-{[5-({4-[(1S)-7-chloro-3,4-dihydro-1H-isothiochromen-1-yl]-2-thienyl}carbonyl)pyrimidin-4-yl]amino}-2-hydroxycyclopentyl]methyl sulfamate] | – | – | – | 93% | < 10 nM
13 | COc1ccc2c(n1)[C@H](c1cc(C(=O)c3cncnc3N[C@@H]3C[C@H](COS(N)(=O)=O)[C@@H](O)C3)sc1C)OCC2 (single isomer, unassigned) [I-339b, [(1R,2S,4R)-2-hydroxy-4-{[5-({4-[(8S)-2-methoxy-5,8-dihydro-6H-pyrano[3,4-b]pyridin-8-yl]-5-methyl-2-thienyl}carbonyl)pyrimidin-4-yl]amino}cyclopentyl]methyl sulfamate or [(1R,2S,4R)-2-hydroxy-4-{[5-({4-[(8R)-2-methoxy-5,8-dihydro-6H-pyrano[3,4-b]pyridin-8-yl]-5-methyl-2-thienyl}carbonyl)pyrimidin-4-yl]amino}cyclopentyl]methyl sulfamate] | – | – | – | 94% | < 10 nM
14 | NS(=O)(=O)OC[C@H]1C[C@@H](Nc2ncncc2C(=O)c2cc([C@@]3(c4ccccc4)CCCO3)cs2)C[C@@H]1O (mixture of isomers) [I-32, [(1R,2S,4R)-2-hydroxy-4-{[5-({4-[(2S)-2-phenyltetrahydrofuran-2-yl]-2-thienyl}carbonyl)pyrimidin-4-yl]amino}cyclopentyl]methyl sulfamate and [(1R,2S,4R)-2-hydroxy-4-{[5-({4-[(2R)-2-phenyltetrahydrofuran-2-yl]-2-thienyl}carbonyl)pyrimidin-4-yl]amino}cyclopentyl]methyl sulfamate] | 98 | < 10 nM | – | – | –
15 | NS(=O)(=O)OC[C@H]1C[C@@H](Nc2ncncc2C(=O)c2cc(C3OCCc4ccc(Cl)cc43)cs2)C[C@@H]1O (single isomer, unassigned) [I-261a, [(1R,2S,4R)-4-{[5-({4-[(1R)-7-chloro-3,4-dihydro-1H-isochromen-1-yl]-2-thienyl}carbonyl)pyrimidin-4-yl]amino}-2-hydroxycyclopentyl]methyl sulfamate or [(1R,2S,4R)-4-{[5-({4-[(1S)-7-chloro-3,4-dihydro-1H-isochromen-1-yl]-2-thienyl}carbonyl)pyrimidin-4-yl]amino}-2-hydroxycyclopentyl]methyl sulfamate] | 76 | 10 to 100 nM | – | – | –
